According to patent publication US20140378551A1, “Composition for the Prophylactic Treatment of Neuropathic Pain” (Universite d'Auvergne, priority 2011, published 2014):

Assays:
[1] = tested on: neuropathic pain induced by spinal nerve ligation among rats; experiment: Y-Maze test: spatial memory, spinal nerve ligation model; assay type: in vivo, rat
Procedure: (§1) The effects of the prolonged and preventive administration of memantine were first of all studied among rats. The model used was that of the ligation of the spinal nerve L5 (herein after called SNL for spinal nerve ligation) among rats. The emergence of neuropathic pain is assessed according to the following criteria: • the behavior of the rat following the spinal nerve ligation (SNL), • cognition, and • molecular events, including the expression of phosphorylated tyrosine 1472 of the NR2B sub-unit of the NMDA receptor at the spinal level.
(§2) The study was based on the comparison of the two main groups of animals. The first group was a control group. The rats of the control group, designated as “Sham” in the graphs, underwent no operation. They are used to assess the role of the injected substances on the individual, without there being any emergence of neuropathic pain.
Two sub-groups were set up in this group: • one sub-group treated with the vehicle which is a saline solution of NaCl 0.9% by mass, in a dose of 1 mL/kg/rat/day, by intraperitoneal injection; and • one sub-group treated with memantine in a dose of 20 mg/kg/rat/day, by intraperitoneal injection. […]
The rat is placed in the middle of a chamber with three arms, each 40 cm long and 4 cm wide. The rat moves around freely in the different arms for five minutes and the number of entries into each of the arms is counted up. […]

[2] = tested on: neuropathic pain induced by spinal nerve ligation among rats; experiment: Paw pressure test (Randall & Selitto): mechanical hyperalgesia, spinal nerve ligation model; assay type: in vivo, rat
Procedure: as §1, §2
Two sub-groups were set up in this group: • one sub-group treated with the vehicle which is a saline solution of NaCl 0.9% by mass, in a dose of 1 mL/kg/rat/day, by intraperitoneal injection; and • one sub-group treated with memantine in a dose of 20 mg/kg/rat/day, by intraperitoneal injection.
The second group of animals comprises rats having to undergo to spinal nerve ligation and therefore likely to develop neuropathic pain. This group is referred to in the graphs by the term SNL. As in the control group, this group is divided into two sub-groups: • one sub-group treated with the vehicle, which is a saline solution of NaCl 0.9% by mass, in a dose of 1 mL/kg/rat/day, by intraperitoneal injection; and • one sub-group treated by memantine in a dose of 20 mg/kg/rat/day, by intraperitoneal injection. […]
7. Seven to 14 days after the surgery, the neuropathic, hyperalgesic or allodynic rats are selected according to their response to nociceptive and non-nociceptive stimulation assessed through appropriate tests (see paragraph 6.1.2). […]

CC12CC3CC(C)(C1)CC(N)(C3)C2 [memantine, 1-amino-3,5-dimethyl-adamantane]
capacity of exploration (time passed in exploring the arms) ([1]; SNL rats, memantine for the 4 days preceding operation and days following): this capacity is restored | capacity of exploration (time passed in exploring the arms) ([1]; rats without ligation, injection for one week, compared with normal rats): does not significantly modify the capacity of exploration of the rat | vocalization threshold (mechanical hyperalgesia) ([2]; SNL rats, 20 mg/kg/rat/day i.p., four days before and three days after the operation): vocalization threshold very close to that of non-operated rats | vocalization threshold (mechanical hyperalgesia) ([2]; SNL rats, 20 mg/kg/rat/day i.p., post-operative injection only (three days after operation)): not enough to restore a normal vocalization threshold | vocalization threshold (mechanical hyperalgesia) ([2]; non-operated (Sham) rats, 20 mg/kg/rat/day intraperitoneal, versus vehicle): no influence whatsoever on the behavior of non-operated rats
